The record followed here is patent US10941152B2, “Pyrazole compounds as modulators of FSHR and uses thereof” (TOCOPHERX, INC., priority 2014, dated 2021).

Assay [1] addresses T1, follicle-stimulating hormone (FSH) receptor (Rattus norvegicus, UniProt P20395).
T1 construct: endogenous in cells; host or cells: rat granulosa cells
T1 sequence (P20395 18-692): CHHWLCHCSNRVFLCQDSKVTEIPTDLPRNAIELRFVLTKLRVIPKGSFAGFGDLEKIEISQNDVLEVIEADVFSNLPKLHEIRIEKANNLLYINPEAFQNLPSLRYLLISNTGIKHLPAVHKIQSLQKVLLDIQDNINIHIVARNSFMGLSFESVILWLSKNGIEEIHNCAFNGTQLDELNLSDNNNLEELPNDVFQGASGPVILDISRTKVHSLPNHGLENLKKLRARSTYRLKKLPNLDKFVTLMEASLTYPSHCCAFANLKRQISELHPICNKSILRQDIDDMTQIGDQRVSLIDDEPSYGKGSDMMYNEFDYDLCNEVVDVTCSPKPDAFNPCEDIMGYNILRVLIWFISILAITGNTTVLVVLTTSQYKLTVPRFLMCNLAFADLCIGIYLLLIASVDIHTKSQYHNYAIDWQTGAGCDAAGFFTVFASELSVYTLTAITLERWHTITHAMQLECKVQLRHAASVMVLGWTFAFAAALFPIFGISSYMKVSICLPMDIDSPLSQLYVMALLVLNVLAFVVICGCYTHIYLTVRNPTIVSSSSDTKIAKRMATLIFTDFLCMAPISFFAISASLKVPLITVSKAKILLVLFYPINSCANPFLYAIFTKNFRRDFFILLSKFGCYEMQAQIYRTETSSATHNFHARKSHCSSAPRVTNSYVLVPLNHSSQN
Briefly: Rat granulosa EC50 FSH (Assay B). The assay is classed as cell-based. How it is done: Example 25. Rat granulosa EC50 FSH (Assay B)
The assay was performed pursuant to the teaching of Yanofsky et al. (2006) Allosteric activation of the follicle-stimulating hormone (FSH) receptor by selective, nonpeptide agonists (JBC 281(19): 13226-13233, which is incorporated by reference in the disclosure of the invention).

The next assay deals with T2, FSHR (Homo sapiens, UniProt P23945).
T2 construct: expressed in transfected cells; host or cells: CHO (Cho-FSHR-LUC-1-1-43)
T2 sequence (P23945 18-695): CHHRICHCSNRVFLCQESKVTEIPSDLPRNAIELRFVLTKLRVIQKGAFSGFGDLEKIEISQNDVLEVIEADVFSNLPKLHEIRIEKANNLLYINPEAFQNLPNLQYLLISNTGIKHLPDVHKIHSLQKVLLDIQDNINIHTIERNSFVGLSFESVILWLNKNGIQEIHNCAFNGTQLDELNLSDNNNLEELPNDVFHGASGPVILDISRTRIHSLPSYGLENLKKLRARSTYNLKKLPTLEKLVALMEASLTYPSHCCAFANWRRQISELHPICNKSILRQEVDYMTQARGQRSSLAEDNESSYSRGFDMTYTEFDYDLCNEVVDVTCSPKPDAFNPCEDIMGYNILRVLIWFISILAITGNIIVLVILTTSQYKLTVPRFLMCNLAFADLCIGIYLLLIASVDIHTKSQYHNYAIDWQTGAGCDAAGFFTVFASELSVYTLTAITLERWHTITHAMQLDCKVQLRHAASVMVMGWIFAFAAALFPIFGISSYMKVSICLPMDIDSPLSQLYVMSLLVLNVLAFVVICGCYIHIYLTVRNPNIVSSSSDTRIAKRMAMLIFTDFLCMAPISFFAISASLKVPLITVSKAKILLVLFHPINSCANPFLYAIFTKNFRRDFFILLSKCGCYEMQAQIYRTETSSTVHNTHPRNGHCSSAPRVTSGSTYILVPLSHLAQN
The experiment in a line: EC50 of cyclic AMP production in CHO FSHR cells + EC20 FSH (Assay A). Format: cell-based. To be noted: cyclic AMP production in CHO FSHR cells + EC20 FSH (0.265 pM), HTRF. Summed up:
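cAMP was detected by HTRF as the 665/620 nm ratio. The CHO-FSHR cells had first been exposed for 1 h at 37° C to test compound together with 0.265 pM FSH (EC20) and 200 μM IBMX. Responses are given as percent of the FSH standard maximum.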

For the compound `COc1cc2c(cc1-c1cncc(C#N)c1)-c1c(c(C(=O)N(C)C(C)(C)C#N)nn1-c1cc(F)cc(F)c1)CO2` [Compound 105, N-(2-cyanopropan-2-yl)-8-(5-cyanopyridin-3-yl)-1-(3,5-difluorophenyl)-7-methoxy-N-methyl-1,4-dihydrochromeno[4,3-c]pyrazole-3-carboxamide], the EC50 – broadly, the concentration at which the effect is half-maximal – is 0.01 to 0.1 µM in assay [1] and under 0.01 µM at FSHR.

As to `COc1cc2c(cc1-c1c(C)nn(CC(=O)N(C)C)c1C)-c1c(c(C(=O)N(C)C(C)(C)C)nn1-c1cc(Cl)cc(Cl)c1)CO2` [Compound 136, N-tert-butyl-1-(3,5-dichlorophenyl)-8-(1-(2-(dimethylamino)-2-oxoethyl)-3,5-dimethyl-1H-pyrazol-4-yl)-7-methoxy-N-methyl-1,4-dihydrochromeno[4,3-c]pyrazole-3-carboxamide], the EC50 in assay [1] is 0.01 to 0.1 µM; on FSHR, under 0.01 µM.

Turning to `COc1cc(F)cc(-n2nc(C(=O)N3CCOCC3(C)C)c3c2-c2cc(-c4cnn(CCO)c4)c(OC)cc2OC3)c1` [Compound 74, (3,3-dimethylmorpholino)(1-(3-fluoro-5-methoxyphenyl)-8-(1-(2-hydroxyethyl)-1H-pyrazol-4-yl)-7-methoxy-1,4-dihydrochromeno[4,3-c]pyrazol-3-yl)methanone], the EC50 is 0.01 to 0.1 µM in assay [1] and under 0.01 µM at FSHR.

Regarding `COc1cc2c(cc1-c1ccccc1C(N)=O)-c1c(c(C(=O)N(C)C(C)(C)C)nn1-c1cc(Cl)cc(Cl)c1)CO2` [Compound 98, N-tert-butyl-8-(2-carbamoylphenyl)-1-(3,5-dichlorophenyl)-7-methoxy-N-methyl-1,4-dihydrochromeno[4,3-c]pyrazole-3-carboxamide], the EC50 was 0.101 to 0.5 µM in assay [1] and under 0.01 µM on FSHR.

In the case of `CCOC(=O)C1CC1c1cc2c(cc1OC)OCc1c(C(=O)N(C)C(C)(C)C)nn(-c3cc(Cl)cc(Cl)c3)c1-2` (centres unmarked) [Compound 196], the EC50 was 0.101 to 0.5 µM in assay [1] and under 0.01 µM on FSHR.

Consider `COc1cc2c(cc1-c1cncc(C#N)c1)-c1c(c(C(=O)N3CCC(O)CC3(C)C)nn1-c1cc(F)cc(F)c1)CO2` (centres unmarked) [Compound 50, 5-(1-(3,5-difluorophenyl)-3-(4-hydroxy-2,2-dimethylpiperidine-1-carbonyl)-7-methoxy-1,4-dihydrochromeno[4,3-c]pyrazol-8-yl)nicotinonitrile], for which the results for the EC50 (in assay [1]; on FSHR) were 0.101 to 0.5 µM and under 0.01 µM, respectively.

Turning to `COc1cc(Cl)cc(-n2nc(C(=O)N3CCOCC3(C)C)c3c2-c2cc(-c4ccn(C)n4)c(OC)cc2OC3)c1` [Compound 33, (1-(3-chloro-5-methoxyphenyl)-7-methoxy-8-(1-methyl-1H-pyrazol-3-yl)-1,4-dihydrochromeno[4,3-c]pyrazol-3-yl)(3,3-dimethylmorpholino)methanone], the EC50 in assay [1] is 0.01 to 0.1 µM; on FSHR, under 0.01 µM.

As to `COc1cc(OC)cc(-n2nc(C(=O)N(C)C(C)(C)C)c3c2-c2cc(-c4ccn(C)n4)c(OC)cc2OC3)c1` [Compound 37, N-tert-butyl-1-(3,5-dimethoxyphenyl)-7-methoxy-N-methyl-8-(1-methyl-1H-pyrazol-3-yl)-1,4-dihydrochromeno[4,3-c]pyrazole-3-carboxamide], the EC50 is over 0.5 µM in assay [1] and 0.01 to 0.1 µM on FSHR.

Turning to `COc1cc2c(cc1-c1cncc(N)c1)-c1c(c(C(=O)N(C)C(C)(C)C)nn1-c1cc(Cl)cc(Cl)c1)CO2` [Compound 20, 8-(5-aminopyridin-3-yl)-N-tert-butyl-1-(3,5-dichlorophenyl)-7-methoxy-N-methyl-1,4-dihydrochromeno[4,3-c]pyrazole-3-carboxamide], the EC50 in assay [1] is 0.101 to 0.5 µM; on FSHR it was under 0.01 µM.

In the case of `COc1cc2c(cc1-c1cncc(C)c1)-c1c(c(C(=O)N(C)C(C)(C)C)nn1-c1ccsc1)CO2` [Compound 59, N-tert-butyl-7-methoxy-N-methyl-8-(5-methylpyridin-3-yl)-1-(thiophen-3-yl)-1,4-dihydrochromeno[4,3-c]pyrazole-3-carboxamide], the EC50 in assay [1] is over 0.5 µM; on FSHR, 0.01 to 0.1 µM.

`[2H]C([2H])([2H])Oc1cc(Cl)cc(-n2nc(C(=O)N(C)C(C)(C)C)c3c2-c2cc(-c4cncc(C(N)=O)c4)c(OC([2H])([2H])[2H])cc2OC3)c1` [Compound 158]: the EC50 is 0.01 to 0.1 µM in assay [1] and under 0.01 µM at FSHR.

As to `CNC(=O)Cn1nc(C)c(-c2cc3c(cc2OC)OCc2c(C(=O)N(C)C(C)(C)C)nn(-c4cc(Cl)cc(Cl)c4)c2-3)c1C` [Compound 140], the EC50 in assay [1] is 0.101 to 0.5 µM; at FSHR, under 0.01 µM.

`COc1cc(F)cc(-n2nc(C(=O)N(C)C(C)(C)C)c3c2-c2cc(-c4cncc(C#N)c4)c(OC)cc2OC3)c1` [Compound 54, N-tert-butyl-8-(5-cyanopyridin-3-yl)-1-(3-fluoro-5-methoxyphenyl)-7-methoxy-N-methyl-1,4-dihydrochromeno[4,3-c]pyrazole-3-carboxamide]: the 50% effective concentration (EC50) in assay [1] was 0.01 to 0.1 µM; at FSHR it was under 0.01 µM.

`COc1cc2c(cc1-c1c(C)nn(CC(=O)O)c1C)-c1c(c(C(=O)N(C)C(C)(C)C)nn1-c1cc(Cl)cc(Cl)c1)CO2` [Compound 137, 2-(4-(3-(tert-butyl(methyl)carbamoyl)-1-(3,5-dichlorophenyl)-7-methoxy-1,4-dihydrochromeno[4,3-c]pyrazol-8-yl)-3,5-dimethyl-1H-pyrazol-1-yl)acetic acid]: the EC50 is 0.101 to 0.5 µM in assay [1] and under 0.01 µM on FSHR.

On to `COc1cc2c(cc1-c1cncc(C#N)c1)-c1c(c(C(=O)N3CCOCC3(C)C)nn1-c1cc(F)cc(Cl)c1)CO2` [Compound 28, 5-(1-(3-chloro-5-fluorophenyl)-3-(3,3-dimethylmorpholine-4-carbonyl)-7-methoxy-1,4-dihydrochromeno[4,3-c]pyrazol-8-yl)nicotinonitrile], for which the EC50 was 0.101 to 0.5 µM in assay [1] and under 0.01 µM on FSHR.

Turning to `COc1cc2c(cc1-c1cc(C(N)=O)ncc1F)-c1c(c(C(=O)N(C)C(C)(C)C#N)nn1-c1cc(F)cc(F)c1)CO2` [Compound 109, 8-(2-carbamoyl-5-fluoropyridin-4-yl)-N-(2-cyanopropan-2-yl)-1-(3,5-difluorophenyl)-7-methoxy-N-methyl-1,4-dihydrochromeno[4,3-c]pyrazole-3-carboxamide], the EC50 in assay [1] was 0.01 to 0.1 µM; on FSHR, under 0.01 µM.

In the case of `COc1cc2c(cc1-c1cncc(C(N)=O)c1)-c1c(c(C(=O)N(C)C(C)(C)C)nn1-c1ccccn1)CO2` [Compound 168], the results for the EC50 (in assay [1]; at FSHR) were 0.101 to 0.5 µM and under 0.01 µM, respectively.

Take `COc1cc2c(cc1OC(C)CO)-c1c(c(C(=O)N(C)C(C)(C)C)nn1-c1ccsc1)CO2` (centres unmarked) [Compound 193, N-tert-butyl-8-(1-hydroxypropan-2-yloxy)-7-methoxy-N-methyl-1-(thiophen-3-yl)-1,4-dihydrochromeno[4,3-c]pyrazole-3-carboxamide]: the figures for the EC50 (in assay [1]; on FSHR) were 0.101 to 0.5 µM and 0.01 to 0.1 µM, respectively.

In the case of `COc1cc(F)cc(-n2nc(C(=O)N3CCOCC3(C)C)c3c2-c2cc(-c4cnn(CC(N)=O)c4)c(OC)cc2OC3)c1` [Compound 73, 2-(4-(3-(3,3-dimethylmorpholine-4-carbonyl)-1-(3-fluoro-5-methoxyphenyl)-7-methoxy-1,4-dihydrochromeno[4,3-c]pyrazol-8-yl)-1H-pyrazol-1-yl)acetamide], the values for the EC50 (in assay [1]; on FSHR) were 0.101 to 0.5 µM and under 0.01 µM, respectively.
